Data as given in patent publication US8263389B2, “Perifusion device” (Biorep Technologies, Inc., priority 2007, dated 2012).
Where no end group is shown, it is not given here.

Experiments:
[1] = test system: Islet cells; assay: insulin release by perifusion of islet cells after oxygen deprivation, measured by ELISA; assay type: cell-based; settings: 11 mM glucose, GLP-1 in addition to 11 mM glucose, KCl
Experimental: Islet cells were compromised by depriving them from the normal oxygen concentration for 0.5, 2, 6, and 12 hours. After that, these islets were incubated in the perifusion system and exposed to substances that stimulate insulin release such as 11 mM of glucose, GLP-1 in addition to 11 mM of glucose, and potassium chloride (KCl).

[2] = test system: human islets; assay: glucagon-insulin release from in vitro perifused human islets; assay type: cell-based; settings: alpha cells of perifused human islets
Experimental: FIG. 22 illustrates glucagon-insulin release from in vitro perifused human islets. This experiment was conducted to show the usefulness of the perifusion system in drug screening. Insulin and glucagon are hormones secreted from the beta and alpha cells of the islets of Langerhans. […] In the same way, any other compound's ability to influence the health or alter the behavior of the pancreatic islets can be assayed using the perifusion system of the invention.

[3] = control batch, normal culture conditions without oxygen deprivation
[4] = islets after twelve hours of incubation with low oxygen

[Cl-].[K+] [KCl, potassium chloride]
insulin release response to stimulus [1, 3]: prominent response
insulin release response to stimulus [1, 4]: very small

GLP-1 (HAEGTFTSDVSSYLEGQAAKEFIAWLVKGR; ends and bridges not checked; UniProt P01275 98-127, looked up)
insulin release response to stimulus [1, 3]: prominent response
insulin release response to stimulus [1, 4]: little or no response

kainates
glucagon release profile [2]: stimulated the alpha cells to produce glucagon
